One series deals with T1, hCC L68Q variant (Homo sapiens, UniProt P01034, L94Q).
T1 construct: Dashed line represents the N-terminal signal peptide subject to proteolysis; expressed in transfected cells
T1 sequence (P01034 27-146 L94Q): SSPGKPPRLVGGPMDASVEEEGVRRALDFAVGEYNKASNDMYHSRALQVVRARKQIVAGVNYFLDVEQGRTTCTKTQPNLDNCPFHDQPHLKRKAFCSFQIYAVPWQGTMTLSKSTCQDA
Briefly: Incubation of supernatants and cellular extracts of hCC-expressing HEK-293T cells with reducing agents, non-reducing SDS-PAGE/Western blot for cystatin C. The series is classed as biochemical. Conditions: for high molecular weight complexes of L68Q Cyst-C: supernatants and cell extracts, 1 h at 37° C. (FIG. 5); for HMW of secreted hCC L68Q (quantitation) / inhibition at 3000 µM: 3 mM; for HMW of secreted hCC L68Q (quantitation) / oligomerization/dimerization levels of secreted hCC L68Q variant in vitro: supernatants, 37° C. for 60 min; for concentration at which equivalent loss of high molecular signal was observed: supernatants or cell extracts treated in vitro (FIG. 6); for ability to disrupt high molecular weight complexes of L68Q Cyst-C: supernatants or cell extracts treated in vitro, 1 h at 37 C (FIG. 6); for oligomerization of hCC WT and L68Q variant in presence of reducing agent: DTT 50 mM or β-mercaptoethanol 5% in sample buffer, lysates and supernatants. How it is done: A plasmid containing a cDNA of CST3 was obtained from Dharmacon (Lafayette, Colo.). The full length coding sequence was amplified with a c-terminal Myc tag by PCR using the forward primer […] All sequences were confirmed by Sanger sequencing. […] After transfection cells were incubated with fresh medium containing puromycin (1 μg/ml) for 3 weeks. After selection, stable clones of each transfectant were generated by limiting dilution.
After clearing the cell lysates by centrifugation (10 minutes, 21,000×g, 4° C.), the supernatants were collected and used for Western blotting. Sample buffer containing SDS, glycerol, Tris-HCl pH 6.8, and bromophenol blue was added to each sample to the following final concentrations: 2% SDS, 10% glycerol, 50 mM Tris-HCl, 0.02% bromophenol blue. In samples that were reduced, either DTT (50 mM final concentration) or β-mercaptoethanol (5% final concentration) were added. […] Proteins were transferred to PVDF membranes (Millipore, Billerica, Mass.) and blotted with anti-hCystatin C, and developed by enhanced chemiluminescence (ECL; Thermo Fisher Scientific). ECL films were scanned, and densities of bands were determined using the gel analysis features of Fiji.^59
(§1) The means and standard deviations of data were calculated. One-sided T-test tests were used to determine the level of significance with respect to the untreated samples, with p<0.05 being considered statistically significant.
A general note: In western blotting, separated proteins are transferred to a membrane and probed.

A further series concerns the target T2, secreted hCC L68Q (Homo sapiens, UniProt P01034, L94Q).
T2 construct: Dashed line represents the N-terminal signal peptide subject to proteolysis; expressed in transfected cells
T2 sequence (P01034 27-146 L94Q): T1 sequence (P01034 27-146 L94Q)
Kind of series: Treatment of live HEK-293T cells expressing hCC WT or L68Q with compounds, Western blot of supernatants or lysates. The series is classed as cell-based. Conditions: for presence of HMW and LMW of secreted hCC L68Q / reduction of HMW and LMW of secreted hCC L68Q: 10 mM; for presence of HMW and LMW of secreted hCC L68Q: 24 h and 48 h time points; for reduction of HMW and LMW of secreted hCC L68Q: 72 h; for effect on oligomerization of secreted hCC L68Q: lower doses (below 10 mM). How it is done: HEK-293T cells expressing hCC WT or the L68Q variant were washed twice with ice-cold phosphate-buffered saline (PBS) and lysed on ice using a freshly prepared ice-cold cell lysis buffer containing 50 mM Tris-HCl, pH 7.4, 100 mM NaCl, 50 mM β-glycerophosphate, 10% glycerol (w/v), 1% NP-40 (w/v), 1 mM EDTA, 2 mM NaVO4, and a complete, EDTA-free, protein inhibitor cocktail (Roche Applied Science, Mannheim Germany) at 20 μl per mL of lysis buffer. After clearing the cell lysates by centrifugation (10 minutes, 21,000×g, 4° C.), the supernatants were collected and used for Western blotting. Sample buffer containing SDS, glycerol, Tris-HCl pH 6.8, and bromophenol blue was added to each sample to the following final concentrations: 2% SDS, 10% glycerol, 50 mM Tris-HCl, 0.02% bromophenol blue. In samples that were reduced, either DTT (50 mM final concentration) or β-mercaptoethanol (5% final concentration) were added. Equal volumes of lysate or supernatant samples were loaded on NuPAGE 4-12% Bis-Tris gels (Thermo Fisher Scientific, Waltham Mass.) without heating/boiling. Proteins were transferred to PVDF membranes (Millipore, Billerica, Mass.) and blotted with anti-hCystatin C, and developed by enhanced chemiluminescence (ECL; Thermo Fisher Scientific). ECL films were scanned, and densities of bands were determined using the gel analysis features of Fiji.^59
(§2) HEK-239T cells were plated on 6-well plates and cultured for 2 days, at which point reduced glutathione (GSH) (Sigma, St. Louis, Mo.) or N-acetylcystein (NAC) (Sigma) were added to the indicated concentrations. Cells were incubated with compounds for 72 hours, and 100 μl samples of supernatants were removed at 24, 48, and 72 hours. Supernatants were cleared by centrifugation (10 minutes, 21,000×g, 4° C.). Sample buffer containing SDS, glycerol, Tris-HCl pH 6.8, and bromophenol blue was added to each sample to the following final concentrations: 2% SDS, 10% glycerol, 50 mM Tris-HCl, 0.02% bromophenol blue. When indicated, cells were washed with PBS and lysed and cystatin C levels were determined by means of Western blot analysis.
as §1

The target of a further series is T3, Cyst-C L68Q (Homo sapiens, UniProt P01034, L94Q).
T3 construct: from tissue; host or cells: plasma and brain extracts of Cyst-C L68Q transgenic mice (from Levy, New York University)
T3 sequence (P01034 27-146 L94Q): T1 sequence (P01034 27-146 L94Q)
Briefly: Incubation of plasma or brain extracts of Cyst-C L68Q transgenic mice with NAC, non-reducing Western blot. The series is classed as biochemical. Conditions: 1 h at 37° C. How it is done:
FIG. 7. High molecular weight complexes of Cyst-C L68Q can be detected in transgenic mice. Short incubation of NAC impairs oligomerization of Cyst-C L68Q on blood and brain extracts. Plasma or brain extracts were incubated in presence of NAC during 1 h at 37° C. with indicated concentrations. Samples were mixed with 2% SDS without reducing agents prior to electrophoresis, and proteins levels were detected by biotinylated anti-cystatin C antibody followed by streptavidin-HRP.
Additional results have been generated from transgenic mice that were obtained from our collaborator Eufrat Levy at New York University. These mice have been transformed with a human genomic DNA which contains the coding sequence of Cyst-C, […] non-coding portions of the gene which may impact expression levels. […] Western blots from the mouse tissue extracts are not as clean as blots from the cell system, as the antibody we use to detect was raised in a mouse. […] Although there are several non-specific high molecular weight bands observed in the non-transgenic samples, a clear high molecular weight “smear” is seen in the transgenic animals, consistent with what we observe in supernatant from the cell culture system.

Series [1] concerns the target T4, amyloid-cystatin protein complex aggregates in the skin (Homo sapiens, UniProt P01034, L94Q).
T4 construct: from tissue; host or cells: human skin biopsies from HCCAA patients
T4 sequence (P01034 27-146 L94Q): T1 sequence (P01034 27-146 L94Q)
Kind of series: Cystatin C immunostaining of skin biopsies from HCCAA patients (hCC L68Q carriers) on NAC therapy. The series is classed as in vivo. The text has this:
Three 4 mm skin biopsies from the back were taken from each of the three studied individuals. The skin biopsies were formalin-fixed and paraffin-embedded. They were cut into 3 μm sections for immunohistochemistry and immunostained with rabbit polyclonal cystatin C antibody (Sigma, HPA013143) using the EnVision Detection System as previously described.^22 hCC immunoreactivity in the carriers skin biopsies was quantified by semi-automated image analysis using the ImageJ software as previously described.^22 Bright-field images of each section from the carriers were captured using a ×20/0.3 NA objective. RGB color images of the sections were imported to ImageJ. On each image, a rectangular 2000×2000 pixels region of interest (ROI) was defined. Subsequent processing yielding the % area coverage of hCC immunoreactivity within each ROI was performed as previously described^22. […] The second biopsy was taken immediately prior to the family-wide initiation of NAC treatment (600 mg of NAC 3× per day for 6 months). The third biopsy was taken following 6 months of 600 mg 3× per day of NAC therapy.
The proband received 400 mg NAC 4× per day for 9 months followed by 600 mg 3× per day for 6 months. The parent received only the 600 mg 3× per day for 6 months course. The proband never missed a dose; the parent did miss the middle dose 2-3 times per week.

For series [2] the following is noted: human, in vivo.
The next series deals with HEK-293T cells. Kind of series: Viability and proliferation of hCC-expressing HEK-293T cells in the presence of reducing agents. The series is classed as cell-based, human. How it is done:
as §2

Where two headings read alike, the source gives them in different places.

Turning to GSSH, on hCC L68Q variant, the “high molecular weight complexes of L68Q Cyst-C” value is recorded as “does not affect”.

On to `CC(=O)N[C@@H](CS)C(=O)O` [NAC, N-acetyl cysteine], for which, on hCC L68Q variant, the “HMW of secreted hCC L68Q (quantitation)” value is given as “almost complete ablation”, the “high molecular weight complexes of L68Q Cyst-C” value is “significant reduction” and the “concentration at which equivalent loss of high molecular signal was observed” value (shortened to “concentration at which equivalent loss”) amounted to 10 mM. Besides, the “oligomerization/dimerization levels of secreted hCC L68Q variant in vitro” value at hCC L68Q variant (3 or 10 mM) is “severely reduces”. Further, on secreted hCC L68Q, the “presence of HMW and LMW of secreted hCC L68Q” value is “completely abolished”; the “reduction of HMW and LMW of secreted hCC L68Q” value is on record as “appreciable but incomplete reduction”. In addition, the “dimerization status of the intracellular levels of L68Q hCC” value at secreted hCC L68Q (extracellular treatment of cells (data not shown)) was “does not appear to impact”. Moreover, the “effect on oligomerization of secreted hCC L68Q” value (“effect on oligomerization” below) at secreted hCC L68Q (24 h and 48 h) is given as “only incompletely effective”. The “effect on oligomerization” value on secreted hCC L68Q (after 72 h) is given as “no significant effect”. Besides, at Cyst-C L68Q, the Cyst-C monomer entry is reported as “causes the appearance of monomer” and the “high molecular weight smear of transgenic human Cyst-C” value is given as “reduces this smear”. The “reduction in staining of skin biopsy” value in series [1] (parent), 600 mg 3× per day for 6 months, middle dose missed 2-3 times per week) worked out at 50%. Also, the “progression of amyloid-cystatin stain intensity between skin biopsy #1 and #2” value in series [1] (proband, on NAC for about 9 months, stopped a few months prior to second biopsy) is “had not progressed in any significant way”. Besides, the “reduction in staining of skin biopsy” value in series [1] (sibling, lower doses of NAC) was “less obvious”. Moreover, the “tolerability of oral therapy” value in series [2] was “well tolerated and without adverse events”.

Regarding `COC(=O)[C@H](CS)NC(C)=O` [NAC-methyl ester, N-acetylcysteine methyl ester], on hCC L68Q variant, the “concentration at which equivalent loss” value is reported as 1 mM and the “ability to disrupt high molecular weight complexes of L68Q Cyst-C” value is on record as “retain the ability to disrupt”.

Regarding `OCCS` [b-mercaptoethanol], the “oligomerization of hCC WT and L68Q variant in presence of reducing agent” value at hCC L68Q variant was “completely abolished”.

As a reminder, the inhibition is the percentage by which the read-out fell short of the control. As to `N[C@@H](CCC(=O)N[C@@H](CS)C(=O)NCC(=O)O)C(=O)O` [GSH, glutathione], the inhibition at 3000 µM at hCC L68Q variant (cellular extract, 37° C., read-out: inhibition of the HMW on the intracellular fraction of the L68Q hCC variant (densitometry)) is roughly 50%. Moreover, the inhibition at 3000 µM on hCC L68Q variant (supernatant, 37° C., read-out: inhibition of the HMW in the secreted fraction of the L68Q hCC variant (densitometry)) was roughly 90%. Moreover, on hCC L68Q variant, the “HMW of secreted hCC L68Q (quantitation)” value is listed as “almost complete ablation” and the “high molecular weight complexes of L68Q Cyst-C” value was “significant reduction”. In addition, at hCC L68Q variant (3 or 10 mM, 37° C.), the “amount of dimer and/or HMW oligomer in secreted and intracellular fraction of hCC WT or L68Q variant” value is “severely reduced”. Besides, the “oligomerization/dimerization levels of secreted hCC L68Q variant in vitro” value at hCC L68Q variant (3 or 10 mM) is “severely reduces”. Moreover, at secreted hCC L68Q, the “presence of HMW and LMW of secreted hCC L68Q” value is listed as “completely abolished”; the “reduction of HMW and LMW of secreted hCC L68Q” value is “appreciable but incomplete reduction”. For the same compound, the “effect on oligomerization” value on secreted hCC L68Q (24 h and 48 h) is reported as “only incompletely effective”. In addition, at secreted hCC L68Q (after 72 h), the “effect on oligomerization” value is reported as “no significant effect”. Moreover, in the series with HEK-293T cells (all concentrations (up to 10 mM), 72 hours), the “cell viability for the duration of the experiment” value is “viable”. The “proliferation of the cells” value with HEK-293T cells (highest 10 mM concentration (data not shown)) is “slightly impacted”.

For `CC(=O)N[C@@H](CO)C(=O)O` [NAS, n-acetyl-serine], the “high molecular weight complexes of L68Q Cyst-C” value at hCC L68Q variant is listed as “does not affect”.

Turning to `O[C@@H](CS)[C@@H](O)CS` [DTT], the “oligomerization of hCC WT and L68Q variant in presence of reducing agent” value at hCC L68Q variant is listed as “completely abolished”.

As to `CC(=O)N[C@@H](CS)C(N)=O`, at hCC L68Q variant, the “concentration at which equivalent loss” value is 1 mM and the “ability to disrupt high molecular weight complexes of L68Q Cyst-C” value was “retain the ability to disrupt”.

The values above are taken from patent US11338009B2 (The Children's Hospital of Philadelphia, priority 2017, dated 2022).
